Measured values reported in US11959486B2, “Stable liquid formulation of AMG 416 (etelcalcetide)” (AMGEN INC., priority 2013, dated 2024).
Read-outs that look alike come from different tables or passages of the source.

Assays:
[1] = for Degradation at 2 y: 3.4 mg/mL in succinate-buffered saline
Protocol: In this study, the long term stability of a liquid formulation of AMG 416, at a concentration of 3.4 mg/mL, was determined over a range of pH in succinate-buffered saline. USP purified water (1200 mL) was dispensed into a glass beaker. Sodium succinate (4.05 g) and sodium chloride (13.5 g) were added and stirred to dissolve. The pH was adjusted to 2.5 with 1N NaOH and/or 1N HCl as required. […] The solution was divided into three portions and the pH for each portion was adjusted to 2.5, 3.0 and 3.5, respectively. Each solution was filtered separately through 0.22 micron PVDF filter and dispense 2 mL to 5-cc vials. After being stoppered, sealed, and labeled, the vials were place in designated stability chambers at 5° C.±3, 25° C.±2, and 40° C.±2. Samples were retrieved according to schedule and diluted with deionized water to 1.0 mg/mL for HPLC analysis.

[2] = Stability in buffered solutions at pH 2.25, 2.5, 3.0 and 3.5, RP-HPLC purity and degradants (Example 6)
Protocol: In this study, the stability of a liquid formulation of AMG 416 under low pH conditions was investigated. Succinate-buffered saline (10 mM, pH 3.5) was prepared by dissolving 59 mg of succinic acid in 45 ml of lab processed (deionized) water and adjusting the pH to 3.5 using 1N HCl and 1N NaOH as needed, and q.s. to 50 ml. In the same way, a 10 mM, pH 3.5 sodium lactate (56 mg/50 mL) buffer solution was prepared.
NaCl (90 mg) was added to one portion and mannitol (500 mg) was added to the other. Each 10 mL portion was split again into two equal 5 mL portions and the pH was adjusted to 2.25 and 3.5, respectively, with 1N HCl and 1N NaOH. In the same way, four 5 mL solutions were prepared using lactate buffer. 1.0 mL of each of the (eight) resulting solutions was added to 3 serum sample vials. In addition, the remaining pH 2.25, succinate-buffered AMG 416 solution containing NaCl was adjusted to pH 2.5 and 0.5 mL aliquots were added to 3 serum sample vials and the remaining pH 3.5 succinate buffered solution with NaCl was adjusted to pH 3.0 and 0.5 mL aliquots were added to 3 serum sample vials.
At each time point (0, 2, 8, 12 and 24 weeks) all 30 samples were retrieved from storage, equilibrated to room temperature (about 25° C.), and a 100 μL aliquot was diluted to 0.5 mg/mL with water for RP-HPLC analysis. […]

[3] = Solution stability in different buffers (acetate, citrate, lactate, succinate), HPLC (Example 5); assay type: physicochemical; details: all buffers tested
Protocol: In this study, the stability of liquid formulations of AMG 416 was evaluated in four different buffers over 9 days. Buffered saline solutions were prepared at 25 mM concentration, pH 4.5, for four different anionic buffers in the sodium salt form: acetate, citrate, lactate and succinate. […] The solutions were diluted further with pH 4.5 buffer to 1.0 mg/mL and 0.25 mg/mL. Each of the resulting solutions was split to two glass HPLC vials, one stored at 2-8° C. and one at room temperature (about 25° C.). HPLC analysis was conducted at 0, 4 and 9 days for determination of potency and purity.

Compound: CC(=O)N[C@H](CSSC[C@H](N)C(=O)O)C(=O)N[C@H](C)C(=O)N[C@H](CCCNC(=N)N)C(=O)N[C@H](CCCNC(=N)N)C(=O)N[C@H](CCCNC(=N)N)C(=O)N[C@H](C)C(=O)N[C@H](CCCNC(=N)N)C(N)=O [AMG 416, N-acetyl-D-cysteinyl-D-alanyl-D-arginyl-D-arginyl-D-arginyl-D-alanyl-D-arginamide disulfide with L-cysteine]
- Degradation at 2 y ([1]; pH 2.5, 5° C.): 4.4%
- Degradation at 2 y ([1]; pH 2.5, 25° C.): 30.7%
- Degradation at 2 y ([1]; pH 2.5, 40° C.): 78.8%
- Degradation at 2 y ([1]; pH 3, 5° C.): 1.5%
- Degradation at 2 y ([1]; pH 3, 25° C.): 14.6%
- Degradation at 2 y ([1]; pH 3, 40° C.): 60.0%
- Degradation at 2 y ([1]; pH 3.5, 5° C.): 0.9%
- Degradation at 2 y ([1]; pH 3.5, 25° C.): 10.0%
- Degradation at 2 y ([1]; pH 3.5, 40° C.): 53.1%
- stability over shelf-life ([1]; refrigerated conditions): adequate stability of AMG 416 over at least a two year shelf-life
- pH of maximal stability ([2]; 5 mg/mL solutions, Example 6): 3.0±0.5
- predicted total degradation over 2 years under refrigerated conditions ([2]; liquid formulations at pH 3.0): 2-4%
- stability during the 9 day study [3]: good stability
